6 compounds from patent US20070254288A1, “Diagnostic methods for pain sensitivity and chronicity and for tetrahydrobiopterin-related disorders” (The General Hospital Corporation, priority 2005, published 2007) can be followed below.

Entries after “also recorded” stand apart in the source; their conditions may differ. Where a name gives a salt, the structure may show the parent alone.

The test system of data set [1] is biopterin. In words: Forskolin stimulation of whole blood from healthy volunteers: biopterin. Format: cell-based, human. The following applies: 10 μM, 24 h. An excerpt:
FIGS. 14C-14F show the effect of forskolin on patient white blood cells. […] White bars unstimulated; grey after stimulation. […] Results represent means with SEM.

For data set [2], the system named is Sprague Dawley rats. In words: Spared nerve injury (SNI) model: mechanical (von Frey) and cold (acetone) allodynia. Format: in vivo, rat. The following applies: SNI. The method, then:
(§1) Adult male Sprague Dawley rats (150-200 g, Charles River Laboratories) were used. For the SNI model two branches of the sciatic nerve, the common peroneal and the tibial nerve, were ligated and sectioned distally. For the CCI model the sciatic nerve was constricted with three Dexon 4/0 ligatures. For the SNL model, the L5 spinal nerve was tightly ligated. All surgical procedures were under isoflurane anesthesia. For the Formalin test 50 μl of 5% formaldehyde solution were injected into a hindpaw and flinches were counted per minute up to 60 min. Paw inflammation was induced with 50 μl complete Freund's adjuvant (CFA) injected into a hindpaw. Nociceptive analysis was done blinded, and animals were fully habituated to the room and test cages. Mechanical allodynia was assessed with graded strength monofilament von Frey hairs (0.0174-20.9 gram, log scaled), cold allodynia with the acetone test and heat hyperalgesia with the Hargreaves test. Drugs (Sigma) were injected intraperitoneally or intrathecally through a spinal catheter, osmotic pumps were used for infusion. Control animals received vehicle. L4/5 DRG and spinal cord tissue was processed for QRT-PCR, Western blotting, in situ hybridization and immunofluorescence studies.
(§2) Animals were fully habituated and experiments performed blinded. Threshold for eliciting a withdrawal reflex to graded strength monofilament von Frey hairs (0.0174-20.9 g) was measured to assess mechanical allodynia. To measure cold allodynia, a drop of acetone was applied to the plantar hindpaw, and the time the animal spent licking, shaking or lifting the paw was measured (Tegeder et al., J Neurosci 24:1637-1645 (2004)). Paw withdrawal latency to radiant heat (lamp with 8 V, 50 W) assessed heat evoked pain (Ugo Basile).
(§3) DAHP was dissolved in 1:1 polyethylene glycol (PEG400) and 1×PBS, pH 7.4 (15 mg/ml) and administered i.p. or intrathecally (250 μg/kg/h; 5 μl/h). For all i.t. injections/infusions a spinal catheter (Recathco) was used and implanted as described (Kunz et al., Pain 110:409-418 (2004)). Infusions with an osmotic pump (Alzet). 6R-BH4 in ACSF was injected i.t. (10 μg, single 10 μl injection). N-acetyl-serotonin in 1×PBS pH 7.4 containing 3% ethanol was delivered by i.t. infusion (100 μg/kg/h; 5 μl/h). Control animals received the appropriate vehicle. All drugs from Sigma-Aldrich.
Data are means ±SEM. The number of animals per group was 9-12. Areas under the “effect versus time” curves (AUC) were calculated using the linear trapezoidal rule and compared with Student's t-test or univariate analysis of variance (ANOVA) with subsequent t-tests employing a Bonferroni alpha-correction for multiple comparisons. All other data were analyzed with univariate ANOVA or ANOVA for repeated measurements. P at 0.05 for all tests.

In data set [3] the test system is cultured adult rat DRG neurons. Briefly: Calcium imaging (fura-2) in cultured adult rat DRG neurons. The format is cell-based. How it is done:
Miniature EPSCs were recorded at −70 mV by whole cell patch clamp in adult rat transverse spinal cord slices (Baba et al., Mol Cell Neurosci 24:818-830 (2003)). Intracellular [Ca]I was measured fluorometrically (ΔF 340/380) in cultured adult DRG neurons loaded with fura-2. 6R-BH4 (0.3-10 μM), DEA-NONOate (50 μM), and L-NAME (10-100 μM) were applied using a multibarrel fast drug delivery system.

In data set [4] the test system is Sprague Dawley rats. Briefly: CFA-induced paw inflammation: thermal hyperalgesia (Hargreaves). Format: in vivo, rat. The following applies: single dose 50 mg/kg i.p.; 50 mg/kg. How it is done: as §1, with “Drugs (Sigma) were injected intraperitoneally or intrathecally through a spinal catheter, osmotic pumps were used for infusion. Control animals received vehicle. L4/5 DRG and spinal cord tissue was processed for QRT-PCR, Western blotting, in situ hybridization and immunofluorescence studies.” left out
For the Formalin test 50 μl of 5% formaldehyde solution were injected into one hindpaw and flinches were counted per minute up to 60 min. […]
as §2
Data are means ±SEM. […] Areas under the “effect versus time” curves (AUC) were calculated using the linear trapezoidal rule and compared with Student's t-test or univariate analysis of variance (ANOVA) with subsequent t-tests employing a Bonferroni alpha-correction for multiple comparisons. All other data were analyzed with univariate ANOVA or ANOVA for repeated measurements. […]

For data set [5], the system named is BH4 synthesis (GTP cyclohydrolase activity). In words: Tissue concentrations of neopterin and biopterin in L4/5 DRGs (LC/MS-MS). The following applies: seven days after SNI. Format: in vivo, rat. How it is done: Homogenized tissue was oxidized with iodine, and pteridines were extracted on Oasis MCX cartridges. Concentrations of total biopterin, neopterin, and the internal standard rhamnopterin were determined by LC/MS-MS. LC analysis under gradient conditions on a Nucleosil C8 column; MS-MS analyses on an API 4000 Q TRAP triple quadrupole mass spectrometer. Precursor-to-product ion transitions of m/z 236→192 for biopterin, m/z 252→192 for neopterin, m/z 265→192 for rhamnopterin were used for the MRM. Linearity from 0.1-50 ng/ml. The coefficient of correlation for all measured sequences was at least 0.99. The intra-day and inter-day variability was <10%.

Data set [6] is described as follows: Observation of general well-being, body weight, gait, activity. Format: in vivo, rat. The following applies: 100 μg/kg/hr i.t. after SNI.
The test system of data set [7] is Sprague Dawley rats. In words: Nociceptive thresholds in naïve animals (von Frey, radiant heat). Format: in vivo, rat. How it is done:
as §2, §3

Turning to `C=C[C@@]1(C)CC(=O)[C@]2(O)[C@@]3(C)[C@@H](O)CCC(C)(C)[C@@H]3[C@H](O)[C@H](OC(C)=O)[C@@]2(C)O1` [forskolin], the “biopterin increase in whole blood” value in data set [1] (homozygous carriers of the haplotype) was 20%; in data set [1] (non-carriers), “about 60%”.
On to `COC(=O)[C@@H](N)CCCNC(=N)N[N+](=O)[O-]` [L-NAME], for which, in data set [2] (25 mg/kg i.p., 25 mg/kg), the “mechanical and cold allodynia” value is “significant effects for von Frey and acetone responses; also recorded: reduced SNI-evoked mechanical and cold allodynia”. Also, the “BH4 mediated increase in [Ca2+]I” value in data set [3] (50 μM) is listed as “significantly reduced the BH4 mediated increase”. For the same compound, the “DEA-NONOate induced increase of [Ca2+]I” value in data set [3] (L-NAME 50 μM, DEA-NONOate 50 μM) was “has no effect”. In addition, the “reduction of the BH4 effect on intracellular calcium” value in data set [3] (n=29, p<0.01) was found to be 47±4%.
Consider `CC(=O)NCCc1c[nH]c2ccc(O)cc12` [NAS, N-acetyl-serotonin], for which, in data set [4], the thermal hyperalgesia entry is listed as “significantly reduces thermal hyperalgesia”. Besides, the “total biopterin levels in L4/5 DRGs” value in data set [5] is listed as “reduced biopterin levels; also recorded: significantly reduces total biopterin levels”. The “mechanical and cold allodynia” value in data set [2] (100 μg/kg/h i.t. infusion 14 days) is “significantly reduced mechanical and cold allodynia; also recorded: significantly reduces nerve-injury evoked mechanical and cold allodynia”. In data set [6], the overt adverse effects result is “without overt adverse effects”.
For `CCN(CC)/[N+]([O-])=N/O.CCNCC` [DEA-NONOate], the intracellular calcium increase entry in data set [3] (50 μM, n=32, compared with BH4) is on record as “produced similar increases”.
Consider `C[C@H](O)[C@H](O)[C@H]1CNc2nc(N)[nH]c(=O)c2N1` [6R-BH4, (6R)-5,6,7,8-tetrahydrobiopterin dihydrochloride], for which, in data set [7] (rat, in vivo), the “latency of pain production” value is reported as below 30 min. The “recorded cells with increased intracellular calcium” value in data set [3] (0.3-10 μM, n=95) was 67%.
With `Nc1nc2ncc([C@H](O)[C@H](O)CO)nc2c(=O)[nH]1` [neopterin], in data set [7] (naïve rats, i.t. 10 μg, 10 μl), the “mechanical and thermal pain sensitivity” value is “had no effect on mechanical and thermal pain sensitivity; also recorded: had no significant effect”.
